Reference: paper PMC8267472, “The Effect of Cream and Gel Vehicles on the Percutaneous Absorption and Skin Retention of a New Eugenol Derivative With Antioxidant Activity” (Frontiers in Pharmacology, 2021)
Where two headings read alike, the source gives them in different places.

What was measured:
[1] = In vitro skin permeation in Franz diffusion cell; format: in vitro ADME, porcine
Description: The skin permeability for vehicles containing eugenol and EDChA were assessed in a Franz diffusion cell consisted of a 2 ml donor chamber and an 8 ml acceptor chamber. The permeation area was 1 cm^2. The acceptor fluid, mixed with a magnetic stirrer, was a PBS (phosphate-buffered saline, pH 7.4) solution that maintained the physiological pH. […] Before starting the test, Franz diffusion cells were allowed to equilibrate at 37°C for 15 min. Porcine skin was used for the study due to its similar permeability properties to human skin. The skin was from a local slaughterhouse. A fresh portion of skin from the abdomen was washed several times with a solution of PBS. Skin with a thickness of 0.5 mm was cut with a dermatome, and then it was wrapped in aluminum foil and frozen at –20°C for a maximum of 3 months. […] Before the study, the skin was thawed at room temperature for about 30 min, and then it was soaked in a PBS solution for 15 min to hydrate it. In the next stage, the skin was mounted in Franz diffusion cells. The integrity of skin was checked 1 h after its installation in the Franz diffusion chamber (SES GmbH Analyze Systeme, Germany). […] To make the measurement, the tips of the probes were immersed in the donor and acceptor chambers filled with the PBS solution.
Preparations (1.000 g) containing one of the test compound (eugenol and EDChA) were placed in the donor chamber. All donor chambers were closed with a plastic stopper to prevent excessive evaporation of the vehicle. […] The samples were analyzed by high-performance liquid chromatography (HPLC).
(§1) The permeation rate was determined based on the amount of permeated compound over a given period (μg/cm^2/h).
(§2) The samples were analyzed by high-performance liquid chromatography (HPLC) with a UV detector (Knauer, Berlin, Germany). […] The flow rate of the mobile phase, consisted of acetonitrile, water, and MeOH (28:64:8, by vol), was 1 ml/min. Twenty microliters of each analyzed sample was injected onto the column.

[2] = DPPH radical reduction by ethanolic solutions of eugenol and EDChA (IC50); format: biochemical; conditions: ethanolic solution, 10 min incubation, 517 nm; read-out: IC50, concentration reducing 50% of free radicals (DPPH method)
Description: Antioxidative activity of ethanolic solutions of eugenol and its new derivative (EDChA) were determined using spectrophotometric method based on DPPH radical reduction as described elsewhere ([Brand-Williams et al., 1995]; [Makuch et al., 2020]). The absorbance at the wavelength of 517 nm was measured using Spectroquant Pharo 300 (Merck, Germany). The antioxidant activity of eugenol and its ester was measured as follows: to 2,850 µl of DPPH ethanolic solution (absorbance at 517 nm 1.00 ± 0.02) 150 µl of the sample (containing one of the tested compound at a concentration of 1.000 w/w) was added. The concentration of the analyzed sample in DPPH ethanolic solution was 0.050% w/w. The tube was wrapped in aluminum foil, sealed with a stopper and incubated for 10 min at room temperature. Each sample was prepared in triplicate. After incubation, spectrophotometric measurements were carried out at 517 nm. Solvent applied to obtain extracts was used as reference. The results were expressed as radical scavenging activity (RSA) ([Nowak et al., 2019]). For each studied compound calibration curve of RSA vs. concentration (0.006–50.000% w/v) was prepared to calculate IC50, i.e. the concentration of the compound reducing 50% of free radicals. The concentration range of the analyzed samples in DPPH ethanolic solution were 0.0003–2.5000% w/v.

[3] = Total polyphenole content by Folin-Ciocalteu method on acceptor fluid and solution after skin extraction
Description: The antioxidant activity of acceptor fluid taken after 24 h of permeation, and solutions obtained after skin extraction performed after the experiment was determined using the DPPH (according to the procedure described above) ([Brand-Williams et al., 1995]; [Makuch et al., 2020]), ABTS ([Makuch et al., 2020]) and Folin–Ciocalteau ([Nowak et al., 2019]; [Makuch et al., 2020]) methods. The ABTS assay is based on the generation of a blue/green ABTS radical, which is applicable to both hydrophilic and lipophilic antioxidant systems; whereas DPPH assay uses a radical dissolved in organic media and is, therefore, applicable to hydrophobic systems ([Molyneux 2004]). To determine the total content of phenolic compounds in the tested samples the method based on the use of the Folin–Ciocalteu reagent in alkaline medium was applied. The reaction is based on the spectrophotometrically recorded color change of the test solution from yellow to blue. Folin–Ciocalteu reagent was diluted tenfold with water in a dark bottle and incubated at room temperature for 60 min. […] The cuvette was sealed with a stopper and incubated for 15 min at room temperature. […]

[4] = Skin accumulation (extraction of skin after the permeation experiment); format: in vitro ADME, porcine; conditions: after 24 h experiment
Description: After completion of permeation experiment, the skin was extracted to estimate the residual amount of tested active ingredients accumulated in it. […] Extraction was carried out as follows: after the experiment was completed, the Franz diffusion chambers were dismantled, while the skin surface was washed three times with an aqueous solution of sodium lauryl sulfate (at a concentration of 0.5% w/w) to rinse of the excess of vehicle containing test compound. A patch (1 cm^2 diffusion surface) was cut from the skin prepared in this way, dried at room temperature, and then weighed and cut into smaller pieces. […] The obtained extracts were then centrifuged at 3,500 rpm for 5 min. The supernatant was analyzed by HPLC to determine the content of active ingredients, while tests on the antioxidant activity of the obtained extracts was evaluated using the DPPH, Folin–Ciocalteau, and ABTS methods.
as §1, §2

[5] = shake-flask method; ref Makuch et al., 2020; cited from earlier work
[6] = parameters: method as in Floegel et al., 2011; conditions: literature value; ref Floegel et al., 2011; read-out: IC50 described in the literature (DPPH); cited from earlier work

C=CCc1ccc(OC(=O)C(Cl)Cl)c(OC)c1 [EDChA, eugenyl dichloroacetate]
Cumulative mass of substance after 24 h of permeation test ([1]; cream vehicles, 1.000% w/w active, acceptor PBS pH 7.4, 1 cm^2): 19.6 ± 1.8 µg | Mass of substance in the acceptor fluid after 24 h of permeation ([1]; gel vehicles, 1.000% w/w active, acceptor PBS pH 7.4, 1 cm^2): 28.8 ± 2.6 µg | IC50 [2]: 4280 µM | Antioxidant activity (Folin-Ciocalteu method) of solution obtained after skin extraction ([3]; cream vehicle): 0.3 ± 0.1 mmol GA/dm^3 | Skin accumulation of substance ([4]; cream vehicles): 173.9 ± 8.4 µg/cm^2 skin | Skin accumulation of substance ([4]; gel vehicles): 255.9 ± 20.1 µg/cm^2 skin

C=CCc1ccc(O)c(OC)c1 [Eugenol, 4-allyl-2-methoxyphenol]
Cumulative mass of substance after 24 h of permeation test ([1]; pig, 24 h, 1 % w/w, pH 7.4): 20.5 ± 0.8 µg | Mass of substance in the acceptor fluid after 24 h of permeation ([1]; pig, 24 h, 1 % w/w, pH 7.4): 31.3 ± 4.3 µg | IC50 [2]: 6.1 µM | log p [5]: 2.20 ± 0.001 | Total polyphenole content (folin-ciocalteu method), solution after skin extraction ([3]; cream vehicles): 0.2 ± 0.1 mmol GA/dm^3 | IC50 [6]: 50.4 µM
